According to patent publication US20130331261A1 (priority 2010, published 2013):

What was measured:
Format in all cases: cell-based
[1] = system: Fumonisin FB1 production by Fusarium proliferatum; experiment: Inhibition of fumonisin FB1 production by Fusarium proliferatum in fumonisin-inducing liquid media (HPLC-MS/MS); settings: 120 h, 5 days at 20° C., vs control without compound
Fusarium proliferatum = experiment: microbe, parasite or virus in culture; settings: 120 h
[2] = system: DON/Acetyl-DON production by Fusarium graminearum; experiment: microbe, parasite or virus in culture; settings: 168 h, read-out: % Inhibition of DON/AcDON at 50 μM
Fusarium graminearum = experiment: microbe, parasite or virus in culture; settings: 72 h, read-out: % Inhibition of fungal growth at 50 μM
[3] = system: Production of Aflatoxins by Aspergillus parasiticus; experiment: microbe, parasite or virus in culture; settings: 168 h, read-out: % Inhibition of Aflatoxin at 50 μM
Aspergillus parasiticus = experiment: microbe, parasite or virus in culture; settings: 168 h, read-out: % Inhibition of fungal growth at 50 μM

Row | Compound | inhibition at 50 µM [1] [%] | inhibition at 50 µM (Fusarium proliferatum) [%] | inhibition at 50 µM [2] [%] | inhibition at 50 µM (Fusarium graminearum) [%] | inhibition at 50 µM [3] [%] | inhibition at 50 µM (Aspergillus parasiticus) [%]
1 | COC(c1ccc(Cl)cc1Cl)C(C)NC(=O)c1cn(C)nc1C(F)F (stereo not drawn) [Example 1] | 100 | 67 | 100 | 54 | 100 | 100
2 | COC(c1ccc(Cl)cc1Cl)C(C)NC(=O)c1c(C(F)F)nn(C)c1F (stereo not drawn) [Example 3] | 100 | 86 | 100 | 41 | 100 | 100
3 | COC(c1ccc(Cl)cc1Cl)C(C)NC(=O)c1c(C)nn(C)c1F (stereo not drawn) [Example 2] | 100 | 77 | 100 | 58 | 100 | 100
